{"source": "PubChem BioAssay AID1918952", "about": "(Molecular Pharmacology Branch, DTP, NCI, 2023);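 further: spheroids exposed to agents for seven days before readout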;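 on viability, T/C: 100% = DMSO vehicle control wells as normalization base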", "test_system": "LG0703-F948-PDC complex spheroid viability", "test": "Anticancer human tumor LG0703-F948-PDC patient-derived lung adenocarcinoma cell line growth inhibition", "conditions": "for IC50: curve of first compound; for viability, T/C: stronger effect = lower value", "outline": "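Multicellular complex spheroids of tumor cells with human endothelial cells (HUVEC) and mesenchymal stem cells; the LSD1 inhibitor iadademstat was combined with standard-of-care or investigational agents. Top concentration at or near clinical Cmax, half-log dilutions; final DMSO ≤0.25%.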", "data": [{"smiles": "O=C(C=Cc1cccc(S(=O)(=O)Nc2ccccc2)c1)NO", "note": "+ NC1CC1c1ccc(-c2cccc(O)c2)cc1", "values": [{"measurement": "IC50", "setting": "second compound 0.1 µM", "result": 61.1, "unit": "nM"}, {"measurement": "IC50", "setting": "second compound 0.316 µM", "result": 70.6, "unit": "nM"}, {"measurement": "IC50", "setting": "second compound 1 µM", "result": 70.9, "unit": "nM"}, {"measurement": "IC50", "setting": "second compound 3.16 µM", "result": 74.5, "unit": "nM"}, {"measurement": "IC50", "setting": "second compound 10 µM", "result": 95.3, "unit": "nM"}, {"measurement": "viability, T/C", "setting": "second compound 0.1 µM, first compound 0.00949 µM", "result": 113, "unit": "%"}, {"measurement": "viability, T/C", "setting": "second compound 0.1 µM, first compound 0.03 µM", "result": 74.8, "unit": "%"}, {"measurement": "viability, T/C", "setting": "second compound 0.1 µM, first compound 0.0949 µM", "result": 35.9, "unit": "%"}, {"measurement": "viability, T/C", "setting": "second compound 0.1 µM, first compound 0.3 µM", "result": 8.61, "unit": "%"}, {"measurement": "viability, T/C", "setting": "second compound 0.1 µM, first compound 0.949 µM", "result": 1.29, "unit": "%"}, {"measurement": "viability, T/C", "setting": "second compound 0.1 µM, first compound 3 µM", "result": 0.28, "unit": "%"}, {"measurement": "viability, T/C", "setting": "second compound 0.316 µM, first compound 0.00949 µM", "result": 113, "unit": "%"}, {"measurement": "viability, T/C", "setting": "second compound 0.316 µM, first compound 0.03 µM", "result": 83.5, "unit": "%"}, {"measurement": "viability, T/C", "setting": "second compound 0.316 µM, first compound 0.0949 µM", "result": 39.5, "unit": "%"}, {"measurement": "viability, T/C", "setting": "second compound 0.316 µM, first compound 0.3 µM", "result": 8.31, "unit": "%"}, {"measurement": "viability, T/C", "setting": "second compound 0.316 µM, first compound 0.949 µM", "result": 1.3, "unit": "%"}, {"measurement": "viability, T/C", "setting": "second compound 0.316 µM, first compound 3 µM", "result": 1.01, "unit": "%"}, {"measurement": "viability, T/C", "setting": "second compound 1 µM, first compound 0.00949 µM", "result": 107, "unit": "%"}, {"measurement": "viability, T/C", "setting": "second compound 1 µM, first compound 0.03 µM", "result": 93.9, "unit": "%"}, {"measurement": "viability, T/C", "setting": "second compound 1 µM, first compound 0.0949 µM", "result": 34.8, "unit": "%"}, {"measurement": "viability, T/C", "setting": "second compound 1 µM, first compound 0.3 µM", "result": 7.01, "unit": "%"}, {"measurement": "viability, T/C", "setting": "second compound 1 µM, first compound 0.949 µM", "result": 1.57, "unit": "%"}, {"measurement": "viability, T/C", "setting": "second compound 1 µM, first compound 3 µM", "result": 0.1, "unit": "%"}, {"measurement": "viability, T/C", "setting": "second compound 3.16 µM, first compound 0.00949 µM", "result": 92.3, "unit": "%"}, {"measurement": "viability, T/C", "setting": "second compound 3.16 µM, first compound 0.03 µM", "result": 80.8, "unit": "%"}, {"measurement": "viability, T/C", "setting": "second compound 3.16 µM, first compound 0.0949 µM", "result": 42.2, "unit": "%"}, {"measurement": "viability, T/C", "setting": "second compound 3.16 µM, first compound 0.3 µM", "result": 6.95, "unit": "%"}, {"measurement": "viability, T/C", "setting": "second compound 3.16 µM, first compound 0.949 µM", "result": 1.69, "unit": "%"}, {"measurement": "viability, T/C", "setting": "second compound 3.16 µM, first compound 3 µM", "result": 0.15, "unit": "%"}, {"measurement": "viability, T/C", "setting": "second compound 10 µM, first compound 0.00949 µM", "result": 90, "unit": "%"}, {"measurement": "viability, T/C", "setting": "second compound 10 µM, first compound 0.03 µM", "result": 86.7, "unit": "%"}, {"measurement": "viability, T/C", "setting": "second compound 10 µM, first compound 0.0949 µM", "result": 50, "unit": "%"}, {"measurement": "viability, T/C", "setting": "second compound 10 µM, first compound 0.3 µM", "result": 7.51, "unit": "%"}, {"measurement": "viability, T/C", "setting": "second compound 10 µM, first compound 0.949 µM", "result": 1.22, "unit": "%"}, {"measurement": "viability, T/C", "setting": "second compound 10 µM, first compound 3 µM", "result": 1.1, "unit": "%"}]}]}
